EC50 data for 25 compounds are collected here from patent US20040023945A1, “CYCLIC AMP-SPECIFIC PHOSPHODIESTERASE INHIBITORS” (ICOS Corporation, priority 1999, published 2004).

For the experiment, the system named is human peripheral blood lymphocytes. The experiment is described as follows: Lipopolysaccharide-stimulated TNFα release from human peripheral blood lymphocytes. The experiment is classed as cell-based. Conditions: Homo sapiens, Lymphocyte, LPS-stimulated TNFα release from human PBL; read-out: PBL/TNFα EC50. How it is done:
The compounds of structural formula (II) also were tested for an ability to reduce TNFα secretion in human peripheral blood lymphocytes. The ability to reduce TNFα secretion is related to the EC50 values (i.e., the effective concentration of the compound capable of inhibiting 50% of the total TNFα).
To assess the ability of a compound to reduce TNFα secretion in human peripheral blood lymphocytes (PBL), the following tests were performed.
Heparinized blood (approximately 30 mL) drawn from human volunteers was mixed 1:1 with Dulbecco's modified phosphate-buffered saline. This mixture was mixed 1:1 with HISTOPAQUE® and centrifuged at 1,500 rpm at room temperature without braking in the swinging bucket of a Beckman model TJ6 centrifuge. Erythrocytes were centrifuged to the bottom of the tubes, and serum remained at the surface of the tubes. A layer containing lymphocytes sedimented between the serum and HISTOPAQUE® layers, and was removed by aspiration to a fresh tube. The cells were quantified and adjusted to 3×10^6 cells/mL and a 100 μL aliquot is placed into the wells of a 96 well plate. Test compounds and RPMI media (Gibco/BRL Life Sciences) are added to each of the wells 15 minutes prior to addition of bacterial LPS ([…]). The mixture was allowed to incubate for 20 hours at 37° C. in a humidified chamber. The cells then were separated by centrifuging at 800 rpm for 5 minutes at room temperature. An aliquot of 180 μL of supernatant was transferred to a new plate for determination of TNFα concentration. TNFα protein in the cell supernatant fluids was measured using a commercially available enzyme-linked immunosorbent assay (ELISA) (CYTOSCREEN® Immunoassay Kit from Biosource International).
The cell-based assay provided the following results for various pyrrolidine compounds of the present invention. The EC50 values (i.e., effective concentration of the compound capable of inhibiting 50% of the total TNFα) illustrate the ability of the present compounds to inhibit LPS-stimulated TNFα release from human PBL.

Regarding `COc1ccc([C@@H]2CN(C(=O)[C@H](OC(C)=O)C3CCCCC3)C[C@@]2(C)[C@@H](C)O)cc1OC1CCCC1` [Example 90, 1-[3-((1R)-1-Hydroxyethyl)(3S,4S)-4-(3-cyclopentyloxy-4-methoxyphenyl)-3-methylpyrrolidinyl](2R)-2-cyclohexyl-2-acetoxyethan-1-one], the EC50 was determined as 61 nM.

On to `COc1ccc([C@@H]2CN(C(=O)CO)C[C@@]2(C)[C@@H](C)O)cc1OC1CCCC1` [Example 65, 1-(3-((1R)-1-Hydroxyethyl)(3S,4S)-4-(3-cyclopentyloxy-4-methoxyphenyl)-3-methylpyrrolidinyl]-2-hydroxyethan-1-one], for which the EC50 stood at 181 nM.

Turning to `COC(=O)N1C[C@@H](c2ccc(OC)c(OC3CCCC3)c2)[C@](C)(C(C)(C)O)C1` (racemic) [Example 1, (±)-4-(3-Cyclopentyloxy-4-methoxyphenyl)-3-(1-hydroxy-1-methylethyl)-3-methylpyrrolidine-1-carboxylic acid methyl ester], the EC50 came out at 1210 nM.

In the case of `COc1ccc([C@@H]2CN(C(=O)C(N)=O)C[C@@]2(C)[C@@H](C)O)cc1OCC1CC1` [Example 78, 2-[(3S,4S)-4-(3-Cyclopropylmethoxy-4-methoxyphenyl)-3-((R)-1-hydroxyethyl)-3-methylpyrrolidin-1-yl]-2-oxo-acetamide], the EC50 was 1290 nM.

With `COC(=O)N1C[C@@H](c2ccc(OC)c(OC3Cc4ccccc4C3)c2)[C@](C)(C(C)O)C1` (mixture of isomers) [Example 4, trans-(±)-3-(1-Hydroxyethyl)-4-[3-(indan-2-yloxy)-4-methoxyphenyl]-3-methylpyrrolidine-1-carboxylic acid methyl ester], the EC50 amounted to 3610 nM.

Regarding `COc1ccc([C@@H]2CN(C(=O)C(O)c3ccccc3)CC2(C)[C@@H](C)O)cc1OC1CCCC1` (stereo in doubt) [Example 63, 1-((3R)-3-((1R)-1-Hydroxyethyl)-4-(3-cyclopentyloxy-4-methoxyphenyl)-3-methylpyrrolidinyl]-2-hydroxy-2-phenylethan-1-one], the EC50 came out at 267 nM.

`CNC(=O)C(=O)N1C[C@@H](c2ccc(OC)c(OC3CCCC3)c2)[C@](C)([C@@H](C)O)C1` [Example 80, 2-[3-((1R)-1-Hydroxyethyl)(3S,4S)-4-(3-cyclopentyloxy-4-methoxyphenyl)-3-methylpyrrolidinyl]-N-methyl-2-oxoacetamide]: the EC50 was 272 nM.

For `COc1ccc([C@@H]2CN(C(=O)[C@H](N)C(C)C)C[C@@]2(C)[C@@H](C)O)cc1OC1CCCC1` [Example 87, (2R)-1-[3-((1R)-1-Hydroxyethyl)(3S,4S)-4-(3-cyclopentyloxy-4-methoxyphenyl)-3-methylpyrrolidinyl]-2-amino-3-methylbutan-1-one], the EC50 was determined as 934 nM.

In the case of `COc1ccc([C@@H]2CN(C(=O)C(N)=O)C[C@@]2(C)[C@@H](C)O)cc1OC1Cc2ccccc2C1` [Example 79, 2-{(3S,4S)-3-((R)-1-Hydroxyethyl)-4-[3-(indan-2-yloxy)-4-methoxyphenyl]-3-methylpyrrolidin-1-yl}-2-oxo-acetamide], the EC50 was 2370 nM.

Turning to `COc1ccc([C@@H]2CN(C(=O)C(=O)N3CCCCC3)C[C@@]2(C)[C@@H](C)O)cc1OC1CCCC1` [Example 81, 1-[3-((1R)-1-Hydroxyethyl)(3S,4S)-4-(3-cyclopentyloxy-4-methoxyphenyl)-3-methylpyrrolidinyl]-2-piperidylethane-1,2-dione], the EC50 amounted to 625 nM.

Take `COC(=O)N1C[C@@H](c2ccc(OC)c(OC3CC4CCC3C4)c2)[C@](C)(C(C)O)C1` (stereo partly drawn) [Example 5, trans 4-[3-Exo-(Bicyclo[2.2.1]hept-2-yloxy)-4-methoxyphenyl]-3-(1-hydroxyethyl)-3-methylpyrrolidine-1-carboxylic acid methyl ester]: the EC50 turned out to be 1550 nM.

For the compound `COc1ccc([C@@H]2CN(C(=O)[C@@H](O)C3CCCCC3)C[C@@]2(C)[C@@H](C)O)cc1OC1CCCC1` [Example 89, 1-[3-((1R)-1-Hydroxyethyl)(3S,4S)-4-(3-cyclopentyloxy-4-methoxyphenyl)-3-methylpyrrolidinyl](2S)-2-cyclohexyl-2-hydroxyethan-1-one], the EC50 came out at 860 nM.

As to `COc1ccc([C@@H]2CN(C(=O)C(=O)NC3CCCC3)C[C@@]2(C)[C@@H](C)O)cc1OC1CCCC1` [Example 82, 2-[3-((1R)-1-Hydroxyethyl)(3S,4S)-4-(3-cyclopentyloxy-4-methoxyphenyl)-3-methylpyrrolidinyl]-N-cyclopentyl-2-oxoacetamide], the EC50 amounted to 490 nM.

As to `COc1ccc([C@@H]2CN(C(=O)COCc3ccccc3)C[C@@]2(C)[C@@H](C)O)cc1OC1CCCC1` [Example 64, 1-[3-((1R)-1-Hydroxyethyl)(3S,4S)-4-(3-cyclopentyloxy-4-methoxyphenyl)-3-methylpyrrolidinyl]-2-(phenylmethoxy)ethan-1-one], the EC50 was 36.2 nM.

For `COc1ccc([C@@H]2CN(c3cccnc3)C[C@@]2(C)[C@@H](C)O)cc1OC1Cc2ccccc2C1` [Example 32, (1R)-1-[(3S,4S)-4-(3-Indan-2-yloxy-4-methoxyphenyl)-3-methyl-1-(3-pyridyl)pyrrolidin-3-yl]ethan-1-ol], the EC50 was found to be 801 nM.

Regarding `CCCC[C@H](N)C(=O)N1C[C@@H](c2ccc(OC)c(OC3CCCC3)c2)[C@](C)([C@@H](C)O)C1` [Example 93, 1-[3-((1R)-1-Hydroxyethyl)(3S,4S)-4-(3-cyclopentyloxy-4-methoxyphenyl)-3-methylpyrrolidinyl](2S)-2-aminohexan-1-one], the EC50 amounted to 7.8 nM.

On to `COc1ccc([C@@H]2CN(C(=O)C(N)=O)C[C@@]2(C)[C@@H](C)O)cc1OCC#Cc1ccc(C(F)(F)F)cc1` [Example 76, 2-((3S,4S)-3-((R)-1-Hydroxyethyl)-4-{4-methoxy-3-(3-(4-trifluoromethyl-phenyl)prop-2-ynyloxy]-phenyl}-3-methylpyrrolidin-1-yl)-2-oxo-acetamide], for which the EC50 was determined as 173 nM.

For the compound `COc1ccc([C@@H]2CN(C(=O)C(N)=O)C[C@@]2(C)[C@@H](C)O)cc1OCCCOc1ccc(F)cc1` [Example 77, 2-[(3S,4S)-4-{3-[3-(4-Fluorophenoxy)propoxy]-4-methoxyphenyl}-3-((R)-1-hydroxyethyl)-3-methylpyrrolidin-1-yl]-2-oxo-acetamide], the EC50 is 580 nM.

Turning to `CCCC[C@@H](NC(=O)OCc1ccccc1)C(=O)N1C[C@@H](c2ccc(OC)c(OC3CCCC3)c2)[C@](C)([C@@H](C)O)C1` [Example 84, N-{(1R)-2-[3-((1R)-1-Hydroxyethyl)(3S,4S)-4-(3-cyclopentyloxy-4-methoxyphenyl)-3-methylpyrrolidinyl]-1-butyl-2-oxoethyl}(phenylmethoxy)carboxamide], the EC50 worked out at 40 nM.

Take `COc1ccc([C@@H]2CN(c3cccnc3)C[C@@]2(C)[C@@H](C)O)cc1OC1CCCC1` [Example 35, (1R)-1-[(3S,4S)-4-(3-Cyclopentyloxy-4-methoxyphenyl)-3-methyl-1-(3-pyridyl)pyrrolidin-3-yl]ethan-1-ol]: the EC50 worked out at 20.3 nM.

With `COc1ccc([C@@H]2CN(C(=O)CO)C[C@@]2(C)C(C)(C)O)cc1OCC1CC1` [Example 2, 1-[4-(S)-(3-Cyclopropylmethoxy-4-methoxyphenyl)-3-(1-hydroxy-1-methylethyl)-3-(S)-methylpyrrolidin-1-yl]-2-hydroxyethanone], the EC50 worked out at 1900 nM.

For the compound `COc1ccc([C@@H]2CN(C(=O)[C@@H](OC(C)=O)C3CCCCC3)C[C@@]2(C)[C@@H](C)O)cc1OC1CCCC1` [Example 88, 2-[3-((1R)1-Hydroxyethyl)(3S,4S)-4-(3-cyclopentyloxy-4-methoxyphenyl)-3-methylpyrrolidinyl](1S)-1-cyclohexyl-2-oxoethyl acetate], the EC50 worked out at 630 nM.

Consider `COc1ccc([C@@H]2CN(C(=O)C(C)(C)OC(C)=O)C[C@@]2(C)[C@@H](C)O)cc1OC1CCCC1` [Example 70, 2-(3-((1R)-1-Hydroxyethyl)(3S,4S)-4-(3-cyclopentyloxy-4-methoxyphenyl) -3-methylpyrrolidinyl]-1,1-dimethyl-2-oxoethyl acetate], for which the EC50 came out at 547 nM.

`COc1ccc([C@@H]2CN(c3ccccn3)C[C@@]2(C)[C@@H](C)O)cc1OC1CCCC1` [Example 34, (1R)-1-[(3S,4S)-4-(3-Cyclopentyloxy-4-methoxyphenyl)-3-methyl-1-(2-pyridyl)pyrrolidin-3-yl]ethan-1-ol]: the EC50 was 250 nM.

Turning to `COC(=O)N1C[C@@H](c2ccc(OC)c(OC(C)CCc3ccccc3)c2)[C@](C)(C(C)O)C1` (relative stereo) [Example 6, trans-3-(1-Hydroxyethyl)-4-(4-methoxy-3-(1-methyl-3-phenylpropoxy)phenyl]-3-methylpyrrolidine-1-carboxylic acid methyl ester], the EC50 worked out at 3660 nM.
